Experimental data from US10149887B2, “Peptides and peptidomimetics in combination with t cell activating and/or checkpoint inhibiting agents for cancer treatment” (CanBas Co., Ltd., priority 2015, dated 2018).
pIC50: −log10 of the molar value. Where two headings read alike, the source gives them in different places. Square brackets hold non-standard residues; d marks the D form. Peptide text beside a SMILES is read from it. dPhe(F5) = N[C@H](Cc1c(F)c(F)c(F)c(F)c1F)C(=O)O; dBpa = N[C@H](Cc1ccc(C(=O)c2ccccc2)cc1)C(=O)O; dCha = N[C@H](CC1CCCCC1)C(=O)O

Assays:
Jurkat cells [1] = experiment: G2 checkpoint abrogation, flow cytometry of bleomycin treated Jurkat cells; type: cell-based, human
Protocol: Cell-cycle analysis The cell cycle status of the cells treated with bleomycin or adriamcin were analyzed by flow cytometry as described by Kawabe (1997) Nature 385:454-458. In brief, two million cells were re-suspended and incubated in 200 μl Krishan's solution (0.1% Sodium citrate, 50 μg/ml PI, 20 μg/ml RNase A and 0.5% NP-40) for 1 hr at 4° C. and analyzed by a flow cytometry, FACScan™ (Beckton Dickinson, Mountain View, Calif.) with the program CELLQuest™ (Beckton Dickinson).
Flow cytometry analysis of G2 checkpoint abrogation was performed using human leukemia derived Jurkat cell line. In brief, cultured cells were treated with various doses of peptide/peptidomimetic and 40 μg/ml bleomycine for 24 hr. The DNA of the cells was stained with propidium iodide and analyzed by flow cytometry.
The “G2 abrogating dose” indicates the peptide/peptidomimetic dose with 40 μg/ml bleomycine that produced detectable G2 checkpoint abrogation activity following treatment for 24 hours.
The G2 checkpoint abrogating activity of various arginine rich sequences at different doses on cells treated with bleomycine was studied. Briefly, peptides were added to culture medium of Jurkat cells with bleomycin (40 μg/ml) at 0.2 μg/ml, 0.39 μg/ml, 0.78 μg/ml, 1.56 μg/ml, 3.125 μg/ml, 6.25 μg/ml, 12.5 μg/ml, 25 μg/ml and 50 μg/ml. Cells were subsequently harvested after 24 hours, stained with Krishan's solution, and analyzed with flow cytometry as previously described.

[2] = system: MIAPaCa2 human pancreatic carcinoma cells; experiment: Colony formation analysis of MIAPaCa2 cells; type: cell-based; conditions: CBP501 10 μmM, cisplatin or oxaliplatin 1, 3 or 9 μg/ml, three hours, then 10 days
Protocol: Briefly, cells were plated at 300 cells/well in 6 well plates, incubated overnight, and treated with the compounds for three hours. The medium was changed and cultured for an additional 10 days. Cells were subsequently fixed with 70% methanol, stained with 0.1% crystal violet and visualized.

SW900 = experiment: G2 checkpoint abrogation by CBP501 combined with cis-platin, flow cytometry; type: cell-based; conditions: SW900, lung, SCC; cis-platin 3 μg/ml 3 hr, then 45 hr
Protocol: (§1) The medium was aspirated, fresh medium without these compounds was added and the cells were incubated for an additional 45 hr. The cells including floating cells were harvested using trypsin-EDTA solution, incubated with Krishan's solution and analyzed for DNA content by flow cytometry as previously described.

SW620 = experiment: as above; type: cell-based; conditions: SW620, colon; cis-platin 3 μg/ml 3 hr, then 45 hr
Protocol: as §1

NCI-H226 = experiment: as above; type: cell-based; conditions: NCI-H226, lung, SCC; cis-platin 3 μg/ml 3 hr, then 45 hr
Protocol: as §1

HMGB1 = HMGB1 secretion from CT26WT cells (ELISA); type: cell-based, murine; conditions: 20 μM CDDP with 0.5 μM CBP501, 45 min
Protocol: Secreted HMGB1 into the medium was collected at 24, 48 and 72 hours after treatment (n=3). Quantification of the secreted HMGB1 was conducted by HMGB1 ELISA kit II. Samples were compared by student's t-test. *P<0.05 **P<0.01, compared with untreated control cells, and ^†P<0.05, ^††P<0.01, compared with the corresponding CDDP alone.
After changing with fresh drug-free medium, cells were incubated for 24, 48, or 72 hours for Immunoblotting analysis of phospho-eIF2-alpha, for calreticulin analysis by FACS, or for HMGB1 ELISA.
The secreted HMGB1 to the medium was quantificated by HMGB1 ELISA kit II (SINO-TEST CORPORATION, kanagawa, Japan) according to manufacturer's instructions.

HUVEC = experiment: Growth of normal human umbilical endothelial cells (HUVEC); type: cell-based; conditions: peptide by itself
Protocol: Similar studies were performed using normal human umbilical endothelial cells (HUVEC).

MIAPaCa2 [3] = experiment: Sensitization of MIAPaCa2 to bleomycin or adriamycin (sub-G1 population, flow cytometry); type: cell-based, human; conditions: bleomycine 10 μg/ml or adriamycin 1 μg/ml, 3 hours, then 21 hours
Description: FIGS. 3A and 3B Human pancreatic cancer derived cell line MIAPaCa2 treated with (FIG. 3A) bleomycin (Bleo) or (FIG. 3B) adriamycin (ADR) with various doses of compounds. Harvested cells were stained for their DNA and analyzed with flow cytometry. The % population of sub-G1 cells are indicated as dead cells.
The G2 checkpoint abrogating activity of various compounds at different doses on human pancreatic cancer derived cell line MIAPaCa2 treated with bleomycine (Bleo) or adriamycin (ADR) was studied. Briefly, cells were incubated with the compounds and bleomycine (10 μg/ml) or adriamycin (1 μg/ml) for 3 hours. The medium was changed and incubated for an additional 21 hours. Harvested cells were stained for DNA by propium iodide and analyzed with flow cytometry as previously described. The % of the sub-G1 cell population is indicated as dead cells in FIG. 3.

[4] = system: MIAPaCa2 human pancreatic carcinoma cells; experiment: MIAPaCa2 subcutaneous xenograft in scid mice; type: in vivo, mouse
Protocol: Day0 indicates treatment initiation. Mean tumor sizes with standard deviation for each treatment group are indicated on the Y-axis and the number of days following treatment initiation are indicated on the X-axis.
To study in vivo efficacy of the compounds, MIAPaCa2 human pancreatic carcinoma cells were implanted subcutaneously in scid mice. The treatment was initiated when the size of the primary tumor became 0.1 cm3 (Day0) or larger, e.g., 7 or 8 mm in diameter. CDDP (3 mg/kg) and CBP 501 (10 or 40 mg/kg) were intra-peritoneally administered alone or in combination. Tumor sizes were measured using calipers three times a week, and volumes were calculated using the formula: weight (mg)=[width (mm)2×length (mm)]/2. Mean tumor sizes for each treatment group are plotted (n=4) against the days after the start of treatment (FIG. 10).

neutrophils = experiment: NET formation by activated neutrophils (elastase activity); type: cell-based, human; conditions: 1 μM CBP501; PMA, A23187 or LPS
Description: Referring to FIG. 17, Neutrophils were purified with EasySep neutrophil enrichment kit (Stemcell technol.) from human peripheral blood after removal of red blood cells with Hetasep (Stemcell technol.).

MIAPaCa2 [5] = conditions: three hours exposure
Protocol: The medium was changed and incubated an additional 24, 48 or 72 hour. Following incubation, 20 μl of alamarBlue 90% reagent was added to each well for another 6 hours for detection of cell viability by fluorescent intensity. Fluorescent intensity was measured using a Spectrafluor Plus plate reader with exitation 530 nm and emission 590 nm. The IC50 was calculated (Table 6).

Jurkat cells [6] = experiment: M phase checkpoint abrogation / non specific toxicity, colchicine treated Jurkat cells; type: cell-based
[7] = system: thrombin/antithrombin complex; experiment: Thrombin/antithrombin complex in plasma of LPS treated mice (ELISA); type: in vivo, mouse; conditions: C57BL/6 mice, CBP501 7.5 mg/kg, plasma 3 hours after
Description: The data were obtained in each condition out of four animals.

`N=C(N)NCCC[C@@H](NC(=O)[C@@H](CCCNC(=N)N)NC(=O)[C@@H](CCC(N)=O)NC(=O)[C@@H](CCCNC(=N)N)NC(=O)[C@@H](CCCNC(=N)N)NC(=O)[C@@H](CCCNC(=N)N)NC(=O)[C@@H](CC1CCCCC1)NC(=O)[C@@H](Cc1c(F)c(F)c(F)c(F)c1F)NC(=O)[C@@H](CO)NC(=O)[C@@H](Cc1c[nH]c2ccccc12)NC(=O)[C@@H](CO)NC(=O)[C@H](N)Cc1ccc(C(=O)c2ccccc2)cc1)C(=O)O` [CBP501, (d-Bpa)(d-Ser)(d-Trp)(d-Ser)(d-Phe-2,3,4,5,6-F)(d-Cha)(d-Arg)(d-Arg)(d-Arg)(d-Gln)(d-Arg)(d-Arg)] (H-[dBpa][dS][dW][dS][dPhe(F5)][dCha][dR][dR][dR][dQ][dR][dR]-OH; N-terminus and C-terminus assumed) was tested, and the “G2 checkpoint abrogating activity (in words)” value (Jurkat cells [1]; Jurkat cells with bleomycin 40 μg/ml) was “abrogated in a dose dependent manner”, the G2 abrogating dose (Jurkat cells [1]; dose with 40 μg/ml bleomycine giving detectable G2 checkpoint abrogation, 24 hours) was at least 0.39 µM and the “Enhancement of cyto-toxic activity of cisplatin and oxaliplatin, colony formation” value [2] was “enhanced the cyto-toxic activity of both cisplatin and oxaliplatin”. For the same molecule, the “G2 checkpoint abrogating dose of CBP501, cis-platin” value (“G2 checkpoint abrogating dose” for short) (SW900) was over 10 µM, the “G2 checkpoint abrogating dose” value (SW620) was over 10 µM and the “G2 checkpoint abrogating dose” value (NCI-H226) was 0.4 µM. The “HMGB1 release, CDDP combined with CBP501 vs CDDP alone” value (HMGB1) was “about 2 times”, the “Growth of normal cells (HUVEC)” value (HUVEC) was “does not affect the growth of HUVEC cells” and the “Sensitization of MIAPaCa2 cells to bleomycin and adriamycin (% sub-G1, dead cells)” value (MIAPaCa2 [3]) was “sensitized MIAPaCa2 cells to both bleomycin and adriamycin in a dose dependent manner”. The “Tumor growth, CBP501 treatment alone” value ([4]; CBP501 10 or 40 mg/kg ip) was “suppresses the growth of human pancreatic cancer cell in vivo”, the “Anti-tumor activity of cisplatin in combination with CBP501” value ([4]; CDDP 3 mg/kg and CBP501 10 or 40 mg/kg ip) was “increased the anti-tumor activity of cisplatin” and the “NET formation by activated neutrophils” value (neutrophils) was “increased NET formation”. It also gave a pIC50 (MIAPaCa2 [5]; read-out: IC50 24 hr, CBP501 with 10 uM cisplatin, with 10 uM cisplatin, additional 24 hour) of 6.22, a pIC50 (MIAPaCa2 [5]; read-out: IC50 24 hr, additional 24 hour) of 5.22 and a pIC50 (MIAPaCa2 [5]; read-out: IC50 48 hr, CBP501 with 10 uM cisplatin, with 10 uM cisplatin, additional 48 hour) of 6.00. The pIC50 (MIAPaCa2 [5]; read-out: IC50 48 hr, additional 48 hour) was 5.00, the pIC50 (MIAPaCa2 [5]; read-out: IC50 72 hr, CBP501 with 10 uM cisplatin, with 10 uM cisplatin, additional 72 hour) was 5.22 and the pIC50 (MIAPaCa2 [5]; read-out: IC50 72 hr, additional 72 hour) was 4.89. The “Non specific toxicity (M checkpoint abrogation), dose up to which absent” value (Jurkat cells [6]; 0.5 μg/ml colchicine, unchanged percentage of M phase arrested cells) was over 50 µM, the “M phase cell cycle arrest and/or non specific toxicity induced by colchicine (in words)” value (Jurkat cells [6]; FIG. 12) was “does not affect M phase cell cycle arrest and/or non specific toxicity induced by colchicine” and the “Appearance of side effect when used with Colchicine” value (Jurkat cells [6]; dose with 5 μg/ml colchicine that produced Jurkat cell cycle disturbance, 24 hours) was over 25 µM. For the same molecule, the “Thrombin/anti-thrombin complexes in vivo” value [7] was “increased thrombin/anti-thrombin complexes”.
